Measurements from the supplement of paper PMC11451515.

System: SEM cells
Test: cell viability relative to DMSO control; higher = less cytotoxic
Conditions: 48 h
Procedure, shortened: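 Library compounds in DMSO were pin-dosed into 1536-well plates (5 μl) holding NOMO1 or SEM (500 cells/well) or P12-Ichikawa (1000 cells/well) leukemia cells, across an 11-point threefold series of 47 μM to 0.79 nM. Each cell line had been adapted for at least four passages in each medium. CellTiter-Glo One luminescence was read after 48 h at 37°C. Viability is the per-plate percentage relative to DMSO wells, with cell-free wells as background.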

[1] = HPLM + 10% dialyzed FBS, 0.000781 µM
[2] = HPLM + 10% dialyzed FBS, 0.00234 µM
[3] = HPLM + 10% dialyzed FBS, 0.00702 µM
[4] = HPLM + 10% dialyzed FBS, 0.0211 µM
[5] = HPLM + 10% dialyzed FBS, 0.0632 µM
[6] = HPLM + 10% dialyzed FBS, 0.19 µM
[7] = HPLM + 10% dialyzed FBS, 0.569 µM
[8] = HPLM + 10% dialyzed FBS, 1.71 µM
[9] = HPLM + 10% dialyzed FBS, 5.12 µM
[10] = HPLM + 10% dialyzed FBS, 15.4 µM
[11] = HPLM + 10% dialyzed FBS, 46.1 µM
[12] = RPMI 5 mM glucose + 10% FBS, 0.000781 µM
[13] = RPMI 5 mM glucose + 10% FBS, 0.00234 µM
[14] = RPMI 5 mM glucose + 10% FBS, 0.00702 µM
[15] = RPMI 5 mM glucose + 10% FBS, 0.0211 µM
[16] = RPMI 5 mM glucose + 10% FBS, 0.0632 µM
[17] = RPMI 5 mM glucose + 10% FBS, 0.19 µM
[18] = RPMI 5 mM glucose + 10% FBS, 0.569 µM
[19] = RPMI 5 mM glucose + 10% FBS, 1.71 µM
[20] = RPMI 5 mM glucose + 10% FBS, 5.12 µM
[21] = RPMI 5 mM glucose + 10% FBS, 15.4 µM
[22] = RPMI 5 mM glucose + 10% FBS, 46.1 µM
[23] = RPMI 5 mM glucose + 10% dialyzed FBS, 0.000781 µM
[24] = RPMI 5 mM glucose + 10% dialyzed FBS, 0.00234 µM
[25] = RPMI 5 mM glucose + 10% dialyzed FBS, 0.00702 µM
[26] = RPMI 5 mM glucose + 10% dialyzed FBS, 0.0211 µM
[27] = RPMI 5 mM glucose + 10% dialyzed FBS, 0.0632 µM
[28] = RPMI 5 mM glucose + 10% dialyzed FBS, 0.19 µM
[29] = RPMI 5 mM glucose + 10% dialyzed FBS, 0.569 µM
[30] = RPMI 5 mM glucose + 10% dialyzed FBS, 1.71 µM
[31] = RPMI 5 mM glucose + 10% dialyzed FBS, 5.12 µM
[32] = RPMI 5 mM glucose + 10% dialyzed FBS, 15.4 µM
[33] = RPMI 5 mM glucose + 10% dialyzed FBS, 46.1 µM

Row | SMILES | cell viability [1] [%] | cell viability [2] [%] | cell viability [3] [%] | cell viability [4] [%] | cell viability [5] [%] | cell viability [6] [%] | cell viability [7] [%] | cell viability [8] [%] | cell viability [9] [%] | cell viability [10] [%] | cell viability [11] [%] | cell viability [12] [%] | cell viability [13] [%] | cell viability [14] [%] | cell viability [15] [%] | cell viability [16] [%] | cell viability [17] [%] | cell viability [18] [%] | cell viability [19] [%] | cell viability [20] [%] | cell viability [21] [%] | cell viability [22] [%] | cell viability [23] [%] | cell viability [24] [%] | cell viability [25] [%] | cell viability [26] [%] | cell viability [27] [%] | cell viability [28] [%] | cell viability [29] [%] | cell viability [30] [%] | cell viability [31] [%] | cell viability [32] [%] | cell viability [33] [%]
1 | CCN(C(=O)C/1=C(O)/C2=C(C=CC=C2Cl)N(C)C1=O)C3=CC=CC=C3 | 79.9 | 92.1 | 99.3 | 93.5 | 84.6 | 61.8 | 62 | 25.8 | 9.79 | 3.62 | 3.31 | 88.2 | 90.7 | 99.6 | 97.6 | 89.5 | 43 | 53.8 | 14.4 | 5.29 | 3.41 | 3.37 | 93.1 | 80.1 | 85.4 | 97.8 | 80.2 | 42.8 | 49.6 | 26.9 | 6.32 | 3.84 | 3.31
2 | Cc1csc(NC(=O)c2sc3nc4c(c(C(F)(F)F)c3c2N)CCC4)n1 | 82 | 96.7 | 93.6 | 81.8 | 108 | 86.6 | 96 | 101 | 81.1 | 70.2 | 89.3 | 82.1 | 99.9 | 89.7 | 107 | 92.2 | 104 | 106 | 97.1 | 84 | 73.1 | 79 | 84.4 | 96.8 | 106 | 80.8 | 92.9 | 99.3 | 89.6 | 97 | 76.6 | 69.9 | 69.9
3 | COC1=CC=C(C=C1O)C/2=C/C(=O)C3=C(O2)C=C(O)C=C3O | 98 | 89.5 | 85.9 | 95.2 | 98.4 | 97.9 | 92.4 | 93.7 | 79.6 | 65.7 | 60.6 | 103 | 95.4 | 113 | 94.3 | 106 | 113 | 110 | 113 | 94.8 | 87.9 | 63.7 | 97.6 | 94.8 | 105 | 104 | 102 | 87.7 | 111 | 119 | 101 | 81.3 | 56.8
4 | O=C(Oc1ccc([N+](=O)[O-])cc1)N1CCC(C(O)(c2ccc3c(c2)OCO3)c2ccc3c(c2)OCO3)CC1 | 72.2 | 89.4 | 64.5 | 97 | 86.3 | 94.8 | 99.7 | 83.7 | 46.6 | 93.5 | 86.1 | 83.3 | 72 | 58.6 | 93.2 | 94.5 | 90.4 | 84 | 78.6 | 35.4 | 99.3 | 85.5 | 90.1 | 95 | 61.6 | 95.9 | 88.6 | 94.7 | 97.9 | 99.3 | 46.3 | 96.2 | 98.2
5 | O=C(O)CCn1c2c(c3ccccc31)C[C@H](N[S+](=O)([O-])c1ccc(F)cc1)CC2 | 112 | 115 | 112 | 110 | 111 | 106 | 96.8 | 126 | 118 | 107 | 104 | 120 | 102 | 118 | 109 | 122 | 108 | 86.7 | 117 | 104 | 107 | 96.4 | 112 | 119 | 119 | 123 | 122 | 120 | 90.6 | 106 | 128 | 120 | 124
6 | O=C(Nc1ncc(SCCN2CCCC2)s1)[C@]1(c2ccc([S+](=O)([O-])C3CC3)cc2)C[C@H]1C1CCCCC1 | 131 | 111 | 120 | 124 | 111 | 108 | 109 | 63.2 | 98.9 | 73.9 | 27.5 | 113 | 117 | 126 | 123 | 120 | 126 | 115 | 71.2 | 123 | 114 | 41.8 | 129 | 106 | 120 | 118 | 117 | 117 | 138 | 51.5 | 110 | 105 | 52.5
7 | COC(=O)C1C2CC3c4[nH]c5cc(OC)ccc5c4CCN3CC2CC(OC(=O)c2cc(OC)c(OC)c(OC)c2)C1OC (stereo unspecified) | 116 | 120 | 119 | 125 | 130 | 119 | 141 | 115 | 116 | 117 | 105 | 97.2 | 120 | 102 | 107 | 113 | 102 | 104 | 112 | 94.8 | 85.2 | 91.4 | 116 | 110 | 113 | 105 | 104 | 134 | 124 | 135 | 128 | 82.1 | 86.6
8 | CC1(C)CNc2cc(NC(=O)c3cccnc3NCc3ccncc3)ccc21 | 118 | 118 | 121 | 112 | 102 | 104 | 92.4 | 101 | 96.3 | 93 | 13.2 | 85.4 | 70.9 | 87.7 | 79.4 | 79.7 | 79.4 | 73.9 | 75.4 | 78.1 | 70.1 | 12.9 | 111 | 112 | 105 | 128 | 125 | 100 | 102 | 91.1 | 79.2 | 90.6 | 7.67
9 | CN1c2ccccc2C(=O)N2CCc3c([nH]c4ccccc34)C21 (stereo unspecified) | 136 | 120 | 114 | 127 | 125 | 120 | 122 | 131 | 125 | 117 | 101 | – | – | – | – | – | – | – | – | – | – | – | 111 | 105 | 120 | 114 | 104 | 112 | 125 | 109 | 102 | 89.1 | 94.7
10 | C=CC(=O)Nc1cccc(Nc2nc(NC3CCC(N(C)C)CC3)nc3c2ncn3C(C)C)c1 (stereo unspecified) | 107 | 106 | 112 | 112 | 105 | 95.9 | 81.9 | 40.6 | 9.48 | 4.66 | 4.5 | 116 | 107 | 101 | 113 | 117 | 106 | 86.9 | 70.1 | 10.8 | 4.33 | 3.98 | 105 | 111 | 109 | 110 | 115 | 107 | 82.5 | 40.9 | 9.22 | 3.79 | 3.4
11 | CNC[C@H](O)c1cccc(O)c1 | 66.9 | 68.9 | 98.8 | 23.9 | 86.8 | 93.1 | 98.1 | 103 | 103 | 101 | 108 | 93 | 55.3 | 100 | 15.4 | 88.7 | 96.7 | 91.7 | 78.1 | 98.2 | 104 | 116 | 89 | 73 | 89.5 | 19.9 | 111 | 98.8 | 101 | 110 | 110 | 98.4 | 111
12 | O=C(O)/C=C/c1ccc(O)c(O)c1 | 90.4 | 102 | 93.6 | 122 | 106 | 93.6 | 98.5 | 105 | 112 | 78 | 20.2 | 108 | 96.8 | 90.3 | 114 | 110 | 90.6 | 109 | 106 | 98.5 | 39.1 | 5.15 | 99.2 | 117 | 111 | 112 | 103 | 114 | 104 | 91.7 | 105 | 50 | 5.58
13 | Cc1ccc([S+](=O)([O-])Nc2nc3ccccc3nc2Nc2ccc3nsnc3c2)cc1 | 81.7 | 90.3 | 99.9 | 88.2 | 92.6 | 93.5 | 87.8 | 90.5 | 78.6 | 73.5 | 59.1 | 102 | 100 | 102 | 112 | 107 | 101 | 97.8 | 105 | 78.7 | 81.3 | 54.9 | 95 | 87.9 | 84.8 | 96 | 88.2 | 84.4 | 89.7 | 96.4 | 83.2 | 61.8 | 65.8
14 | N#Cc1ccnc(Nc2cc(C3CCN(C4COC4)CC3)cc(N3CCC(F)(F)C3)n2)c1 | 96.4 | 97.9 | 91.6 | 110 | 110 | 104 | 109 | 103 | 102 | 35.3 | 10.2 | 107 | 127 | 125 | 128 | 123 | 110 | 131 | 112 | 100 | 43.7 | 8.66 | 103 | 110 | 97.8 | 111 | 121 | 101 | 110 | 106 | 85.5 | 25.5 | 9.03
